Source: patent US20120184594A1, “PHENYLPYRROLIDINE COMPOUNDS” (Ferrer Internacional S.A., priority 2007, published 2012)

How the values were obtained:
[1] = Metabolic stability by incubation in human microsomes; format: in vitro ADME; settings: disappearance of compound, 120 min, 1 μM
Description: (§1) Moreover, the compounds of the present invention advantageously provide relevant pharmacokinetic improvements.

[2] = Rat plasma levels and brain/plasma ratio after administration; format: in vivo; settings: 15 min after administration of 1 mg/Kg; for concentration at 15 min: plasma
Description: as §1

[3] = biological target: T1, recombinant human MT1 receptor (Homo sapiens, UniProt P48039); assay: Agonist activity on MT1 receptors (aequorin luminescence, Gα16 co-expressing cell line); format: cell-based; settings: percentage activity with respect to the reference agonist at its EC100; for MT1 agonism 1 nM: compound at 1 nM; for MT1 agonism 100 nM: compound at 100 nM, in %
T1 construct: expressed in transfected cells; host or cells: unnamed cell line co-expressing mitochondrial apoaequorin and the Gα16 subunit
Description: Determination of the agonist activity on MT1 receptors
In order to screen compounds for the MT1 receptor a cell line is used that is characterised by stable overexpression of the recombinant human MT1 receptor in a cell line that in turn co-expresses mitochondrial apoaequorin and the Gα16 subunit.
The Gα16 subunit belongs to the G protein family, formed by GPCR, wherein the transduction of intracellular signals occurs via phospholipase (PLC). PLC activation produces an increase in inositol-triphosphate levels that leads to an increase in intracellular calcium. Gα16 overexpression thus allows an increase in intracellular calcium levels that is independent and compatible with the study receptor's own signal transduction pathway.
Following its binding to calcium, the aequorin oxidises coelenterazine to coelenteramide, a reaction that releases CO2 and light.
The trial protocol for the screening of possible agonists consists in collecting the cells and keeping them in suspension overnight in the presence of coelenterazine in order to reconstitute aequorin. On the following day the cells are injected on a plate where the compounds to be screened are diluted, and the luminescence released is read immediately. When wishing to study the possible antagonism of the same compounds, the reference agonist compound is added in the same well after 15-30 min from the first injection and the luminescence released is assessed.
Agonist activity is calculated as percentage activity with respect to the reference agonist at the concentration corresponding to its EC100. Antagonist activity is expressed as percentage inhibition over the reference agonist activity at the concentration corresponding to its EC80.

[4] = background statement; cited from earlier work

T1 sequence (P48039 whole entry): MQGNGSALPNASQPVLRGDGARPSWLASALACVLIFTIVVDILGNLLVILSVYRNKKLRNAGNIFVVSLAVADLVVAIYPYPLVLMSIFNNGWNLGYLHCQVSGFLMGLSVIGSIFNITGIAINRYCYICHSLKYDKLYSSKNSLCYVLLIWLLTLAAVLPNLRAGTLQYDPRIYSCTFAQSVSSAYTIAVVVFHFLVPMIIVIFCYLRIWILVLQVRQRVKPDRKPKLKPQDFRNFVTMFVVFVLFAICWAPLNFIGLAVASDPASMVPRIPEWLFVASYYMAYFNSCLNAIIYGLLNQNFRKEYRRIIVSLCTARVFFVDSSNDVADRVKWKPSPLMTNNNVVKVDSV

| metabolic stability [1] | concentration at 15 min [2] | MT1 agonism 1 nM [3] | MT1 agonism 100 nM [3] | Kp at 0.25 h ([2]; brain/plasma) | Molecule | clearance [4] |
| --- | --- | --- | --- | --- | --- | --- |
|  |  | 46.7% | 109.9 |  | CCC(=O)N[C@H]1CCN(c2cccc(OC)c2)C1 [Example 3, (S)—N-[1-(3-methoxy-phenyl)-pyrrolidin-3-yl]-propionamide] |  |
|  |  | 34.4% | 102.7 |  | COc1cccc(N2CC[C@H](NC(C)=O)C2)c1 [Example 4, (S)—N-[1-(3-methoxy-phenyl)-pyrrolidin-3-yl]-acetamide] |  |
|  |  | 51.8% | 100.5 |  | COc1ccc2[nH]cc(CCNC(C)=O)c2c1 [Melatonin, reference compound] |  |

The remaining lines, values behind:

| Molecule | metabolic stability [1] | concentration at 15 min [2] | MT1 agonism 1 nM [3] | MT1 agonism 100 nM [3] | Kp at 0.25 h ([2]; brain/plasma) | clearance [4] |
| --- | --- | --- | --- | --- | --- | --- |
| CCC(=O)NCC[C@@H]1CCc2ccc(OC)cc21 [(1S)—N-[2-(6-methoxy-indan-1-yl)ethyl]-propionamide, reference compound] | less than 30% | 10.1 ng/mL |  |  |  |  |
| COc1cccc(N2CC[C@H](NC(=O)CC(C)C)C2)c1 [Example 8, (S)—N-[1-(3-methoxy-phenyl)-pyrrolidin-3-yl]-3-methyl-butyramide] |  | 15.1 ng/mL | 50.1% | 110.3 | 1 |  |
| CCC(=O)NCC[C@@H]1CCc2ccc3c(c21)CCO3 [Ramelteon, N-[2-[(8S)-1,6,7,8-tetrahydro-2H-indeno[5,4-b]furan-8-yl)ethyl]propionamide, reference compound] |  |  | 50% | 117.5 |  | 88% |
| (S)-[1-(3-methoxy-phenyl)-pyrrolidin-3-yl]-butyramide [Example 7] |  |  | 33.4% | 99.6 |  |  |
